In the CheMixHub viscosity set:

Experiment: xn = mol fraction of the nth substance listed

Cc1ccc(C)cc1 + CCCO
viscosity [mPa·s], 100 kPa
Conditions | 298.15 K | 308.15 K
x2 = 0.0643 | 0.6146 | 0.5489
x2 = 0.1254 | 0.631 | 0.5619
x2 = 0.2254 | 0.6713 | 0.5956
x2 = 0.3547 | 0.7426 | 0.6389
x2 = 0.4703 | 0.8348 | 0.7071
x2 = 0.5743 | 0.9545 | 0.7925
x2 = 0.6683 | 1.058 | 0.9054
x2 = 0.7538 | 1.253 | 1.028
x2 = 0.8318 | 1.449 | 1.198
x2 = 0.9033 | 1.662 | 1.337
x2 = 0.9691 | 1.814 | 1.457

O=C(O)CCC(=O)O + CCCO
101 kPa
Conditions | viscosity [mPa·s]
308.15 K, x1 = 0.0284 | 1.872
313.15 K, x1 = 0.0284 | 1.657
313.15 K, x1 = 0.03 | 1.657
313.15 K, x1 = 0.037 | 1.72
313.15 K, x1 = 0.043 | 1.777
313.15 K, x1 = 0.0435 | 1.888
313.15 K, x1 = 0.048 | 1.888
318.15 K, x1 = 0.0284 | 1.492
318.15 K, x1 = 0.0435 | 1.635
323.15 K, x1 = 0.0284 | 1.326
323.15 K, x1 = 0.0435 | 1.462

O=C(O)c1ccccc1C(=O)O + CCCO
viscosity [mPa·s]
Conditions | 308.15 K | 313.15 K | 318.15 K | 323.15 K
101 kPa, x1 = 0.02 | – | 1.632 | – | –
101 kPa, x1 = 0.027 | – | 1.732 | – | –
101 kPa, x1 = 0.0369 | – | 1.887 | – | –
101.33 kPa, x1 = 0.02 | 1.78 | 1.632 | 1.457 | 1.302
101.33 kPa, x1 = 0.0369 | 2.133 | 1.887 | 1.672 | 1.488

O=Cc1ccccc1 + CCCO
Conditions | viscosity [mPa·s]
308.15 K, 101 kPa, x2 = 0.8022 | 1.215

CCCCCCCCN + CCN(CC)CC
viscosity [mPa·s], 101.33 kPa
Conditions | x2 = 0.1056 | x2 = 0.2038 | x2 = 0.4151 | x2 = 0.4978 | x2 = 0.6055 | x2 = 0.8063 | x2 = 0.9007
303.15 K | 1.021 | 0.9064 | 0.7044 | 0.6396 | 0.5641 | 0.4488 | 0.4031
313.15 K | 0.8659 | 0.7719 | 0.6062 | 0.5533 | 0.4916 | 0.3975 | 0.3611

c1ccc(Nc2ccccc2)cc1 + CCN(CC)c1ccccc1
viscosity [mPa·s], 101 kPa
Conditions | x1 = 0.1169 | x1 = 0.2161 | x1 = 0.4308 | x1 = 0.5654 | x1 = 0.6688 | x1 = 0.7545 | x1 = 0.8327 | x1 = 0.949
298.15 K | 2.41 | 2.98 | 4.63 | 6.52 | 8.13 | – | – | –
323.15 K | 1.35 | 1.58 | 2.22 | 2.9 | 3.31 | 3.82 | 4.49 | 5.4

NCCO.O=CO + CCO
viscosity [mPa·s], 101 kPa
Conditions | x2 = 0.6996 | x2 = 0.7776 | x2 = 0.8461 | x2 = 0.9031 | x2 = 0.9294 | x2 = 0.9544 | x2 = 0.9779
293.15 K | 12.34 | 7.77 | 5.01 | 3.318 | 2.76 | 2.28 | 1.86
298.15 K | 10.54 | 6.762 | 4.44 | 3 | 2.502 | 2.064 | 1.71
303.15 K | 9.078 | 5.97 | 3.984 | 2.73 | 2.268 | 1.902 | 1.584

O=Cc1ccccc1 + CCO
298.15 K, 101.33 kPa
Conditions | viscosity [mPa·s]
x1 = 0.05414 | 1.092
x1 = 0.08518 | 1.052
x1 = 0.1016 | 1.05
x1 = 0.1182 | 1.051
x1 = 0.1595 | 1.031
x1 = 0.1727 | 1.041
x1 = 0.3372 | 1.158
x1 = 0.6248 | 1.308
x1 = 0.8076 | 1.362

Cc1ccc(C)cc1 + CCOC(C)=O
Conditions | viscosity [mPa·s]
298.15 K, 101 kPa, x2 = 0.044 | 0.601
298.15 K, 101 kPa, x2 = 0.1503 | 0.572
298.15 K, 101 kPa, x2 = 0.2506 | 0.547
298.15 K, 101 kPa, x2 = 0.3502 | 0.525
298.15 K, 101 kPa, x2 = 0.4374 | 0.507
298.15 K, 101 kPa, x2 = 0.4986 | 0.496
298.15 K, 101 kPa, x2 = 0.5505 | 0.487
298.15 K, 101 kPa, x2 = 0.6473 | 0.472
298.15 K, 101 kPa, x2 = 0.7519 | 0.457
298.15 K, 101 kPa, x2 = 0.8485 | 0.444
298.15 K, 101 kPa, x2 = 0.9426 | 0.434
303.15 K, 101.32 kPa, x2 = 0.0624 | 0.555
303.15 K, 101.32 kPa, x2 = 0.1828 | 0.534
303.15 K, 101.32 kPa, x2 = 0.2938 | 0.516
303.15 K, 101.32 kPa, x2 = 0.4031 | 0.498
303.15 K, 101.32 kPa, x2 = 0.5056 | 0.481
303.15 K, 101.32 kPa, x2 = 0.552 | 0.474
303.15 K, 101.32 kPa, x2 = 0.6041 | 0.465
303.15 K, 101.32 kPa, x2 = 0.6976 | 0.45
303.15 K, 101.32 kPa, x2 = 0.7887 | 0.436
303.15 K, 101.32 kPa, x2 = 0.8757 | 0.423
303.15 K, 101.32 kPa, x2 = 0.9585 | 0.411
308.15 K, 101 kPa, x2 = 0.044 | 0.527
308.15 K, 101 kPa, x2 = 0.1503 | 0.506
308.15 K, 101 kPa, x2 = 0.2506 | 0.488
308.15 K, 101 kPa, x2 = 0.3502 | 0.471
308.15 K, 101 kPa, x2 = 0.4374 | 0.457
308.15 K, 101 kPa, x2 = 0.4986 | 0.448
308.15 K, 101 kPa, x2 = 0.5505 | 0.44
308.15 K, 101 kPa, x2 = 0.6473 | 0.427
308.15 K, 101 kPa, x2 = 0.7519 | 0.414
308.15 K, 101 kPa, x2 = 0.8485 | 0.403
308.15 K, 101 kPa, x2 = 0.9426 | 0.393
313.15 K, 101.32 kPa, x2 = 0.2063 | 0.481
313.15 K, 101.32 kPa, x2 = 0.4077 | 0.45
313.15 K, 101.32 kPa, x2 = 0.5061 | 0.435
313.15 K, 101.32 kPa, x2 = 0.5991 | 0.423
313.15 K, 101.32 kPa, x2 = 0.8016 | 0.395

[Cl-].[Cl-].[Cl-].[Cl-].[Ge+4] + CCOC(C)=O
viscosity [mPa·s], 101 kPa
Conditions | x2 = 0.1475 | x2 = 0.3162 | x2 = 0.5235 | x2 = 0.6703 | x2 = 0.8062
293.15 K | 0.576 | 0.535 | 0.5 | 0.481 | 0.469
303.15 K | 0.531 | 0.486 | 0.457 | 0.431 | 0.416
313.15 K | 0.481 | 0.449 | 0.406 | 0.39 | 0.382

[Cl-].[Cl-].[Cl-].[Cl-].[Ge+4] + CCOCC
293.15 K, 101 kPa
Conditions | viscosity [mPa·s]
x2 = 0.2064 | 0.5
x2 = 0.4027 | 0.415
x2 = 0.5137 | 0.376
x2 = 0.6832 | 0.309
x2 = 0.7964 | 0.279

CCCCCCCCN + CCOCCO
308.15 K, 101 kPa
Conditions | viscosity [mPa·s]
x2 = 0.1595 | 1.136
x2 = 0.4226 | 1.512
x2 = 0.5324 | 1.655
x2 = 0.6307 | 1.75
x2 = 0.7193 | 1.725
x2 = 0.7994 | 1.654
x2 = 0.8723 | 1.568
x2 = 0.9389 | 1.497

O=Cc1ccccc1 + CCc1ccccc1
viscosity [mPa·s], 101 kPa
Conditions | x1 = 0.1197 | x1 = 0.2343 | x1 = 0.3441 | x1 = 0.4494 | x1 = 0.5504 | x1 = 0.6474 | x1 = 0.7407 | x1 = 0.8304 | x1 = 0.9168
303.15 K | 0.6517 | 0.704 | 0.7588 | 0.8174 | 0.882 | 0.9577 | 1.043 | 1.13 | 1.203
308.15 K | 0.6199 | 0.6713 | 0.7283 | 0.7882 | 0.8554 | 0.93 | 1.014 | 1.102 | 1.181
313.15 K | 0.584 | 0.6318 | 0.691 | 0.7573 | 0.8273 | 0.9007 | 0.9837 | 1.07 | 1.158

CC(O)C(C)O (centres undefined) + CN1CCCC1=O
308.15 K, 101 kPa
Conditions | viscosity [mPa·s]
x1 = 0.0282 | 1.924
x1 = 0.0534 | 2.003
x1 = 0.1001 | 2.405
x1 = 0.1968 | 2.91
x1 = 0.295 | 3.344
x1 = 0.3939 | 4.159
x1 = 0.4746 | 5.033
x1 = 0.5881 | 7.256
x1 = 0.6924 | 8.758
x1 = 0.7916 | 13.58
x1 = 0.8948 | 23.29
x1 = 0.9431 | 32.45
x1 = 0.973 | 39.91

CC(O)C(C)O (centres undefined) + CN(C)C=O
308.15 K, 101 kPa
Conditions | viscosity [mPa·s]
x1 = 0.0509 | 0.724
x1 = 0.1003 | 0.859
x1 = 0.1898 | 1.033
x1 = 0.2855 | 1.36
x1 = 0.3729 | 1.788
x1 = 0.4785 | 2.544
x1 = 0.5949 | 5.332
x1 = 0.6808 | 8.504
x1 = 0.7219 | 10.79
x1 = 0.8883 | 24.97
x1 = 0.942 | 34.78
